From ChEMBL document CHEMBL4304783, “Discovery of a Novel Selective Dual Peroxisome Proliferator-Activated Receptor α/δ Agonist for the Treatment of Primary Biliary Cirrhosis” (ACS Med Chem Lett, 2019)
pEC50, pIC50: −log10 of the molar value. The source made the active and inactive calls. The calls are words filed in the database; no cut-off is given here.

Tests used:
Cytochrome P450 3A4 = Cytochrome P450 3A4 (Homo sapiens, UniProt P08684); assay: Inhibition of CYP3A4 in human liver microsomes using midazolam as substrate incubated for 10 mins followed by substrate addition further incubated for 10 mins by LC-MS/MS analysis; type: ADME
[1] = Volume of distribution at steady state in Sprague-Dawley rat at 1 mg/kg, iv measured upto 24 hrs by LC-MS/MS analysis; type: ADME, organism-based; details: in vivo, read-out: Vdss
[2] = AUC (0 to last) in Sprague-Dawley rat at 10 mg/kg, po measured upto 24 hrs by LC-MS/MS analysis; type: ADME, organism-based; set-up: dose 10 mg/kg, route oral, time 0 - last; details: in vivo
[3] = Cmax in C57BL/6J mouse at 10 mg/kg, po measured upto 24 hrs by LC-MS/MS analysis; type: ADME, organism-based; set-up: dose 10 mg/kg, route oral; details: in vivo
Rattus norvegicus [4] = assay: Hepatoprotective activity in Sprague-Dawley rat assessed as reduction in ANIT-stimulated inflammatory score at 3 mg/kg, ig administered for 8 days by hematoxylin and eosin staining based mopho-metric analysis relative to control; type: functional; set-up: scale not given: the % may be the effect or the level left
[5] = target: Voltage-gated inwardly rectifying potassium channel KCNH2 (Homo sapiens, UniProt Q12809); assay: Inhibition of human ERG expressed in CHO-K1 cells by whole-cell patch clamp assay; type: cell-based
[6] = target: T1, Peroxisome proliferator-activated receptor delta (Homo sapiens) (UniProt Q03181); assay: Agonist activity at PPARbeta (unknown origin) incubated for 3 to 16 hrs by pathhunter nuclear hormone receptor assay relative to L-165,041
T1 sequence (whole entry): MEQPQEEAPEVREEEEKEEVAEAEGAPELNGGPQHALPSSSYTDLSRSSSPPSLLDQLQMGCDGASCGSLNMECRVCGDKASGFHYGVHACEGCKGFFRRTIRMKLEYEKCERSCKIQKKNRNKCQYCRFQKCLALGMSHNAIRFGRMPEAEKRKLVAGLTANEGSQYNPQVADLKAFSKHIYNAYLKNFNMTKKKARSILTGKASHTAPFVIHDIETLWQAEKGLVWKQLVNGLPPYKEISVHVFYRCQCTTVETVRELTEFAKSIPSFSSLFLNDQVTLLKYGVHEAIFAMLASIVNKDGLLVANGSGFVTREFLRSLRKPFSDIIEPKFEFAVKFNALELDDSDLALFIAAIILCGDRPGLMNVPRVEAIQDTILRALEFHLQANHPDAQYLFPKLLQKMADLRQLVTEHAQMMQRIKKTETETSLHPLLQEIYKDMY

[7] = Stability in human plasma assessed as remaining compound incubated for 2 hrs; type: ADME, cell-free; details: read-out: Stability
[8] = AUC (0 to last) in C57BL/6J mouse at 1 mg/kg, iv measured upto 24 hrs by LC-MS/MS analysis; type: ADME, organism-based; set-up: dose 1 mg/kg, time 0 - last, route intravenous; details: in vivo
[9] = Protein binding in human plasma at 2 uM incubated for 4 hrs by LC-MS/MS analysis; type: ADME, cell-free
[10] = Tmax in C57BL/6J mouse at 10 mg/kg, po measured upto 24 hrs by LC-MS/MS analysis; type: ADME, organism-based; details: in vivo
Rattus norvegicus [11] = assay: Hepatoprotective activity in Sprague-Dawley rat assessed as reduction in ANIT-stimulated fibrosis area at 3 mg/kg, ig administered for 8 days by hematoxylin and eosin staining based mopho-metric analysis relative to control; type: functional; set-up: scale not given: the % may be the effect or the level left
[12] = target: T2, Peroxisome proliferator-activated receptor gamma (Homo sapiens) (UniProt P37231); assay: Agonist activity at PPARgamma (unknown origin) incubated for 3 to 16 hrs by pathhunter nuclear hormone receptor assay relative to Troglitazone
T2 sequence (whole entry): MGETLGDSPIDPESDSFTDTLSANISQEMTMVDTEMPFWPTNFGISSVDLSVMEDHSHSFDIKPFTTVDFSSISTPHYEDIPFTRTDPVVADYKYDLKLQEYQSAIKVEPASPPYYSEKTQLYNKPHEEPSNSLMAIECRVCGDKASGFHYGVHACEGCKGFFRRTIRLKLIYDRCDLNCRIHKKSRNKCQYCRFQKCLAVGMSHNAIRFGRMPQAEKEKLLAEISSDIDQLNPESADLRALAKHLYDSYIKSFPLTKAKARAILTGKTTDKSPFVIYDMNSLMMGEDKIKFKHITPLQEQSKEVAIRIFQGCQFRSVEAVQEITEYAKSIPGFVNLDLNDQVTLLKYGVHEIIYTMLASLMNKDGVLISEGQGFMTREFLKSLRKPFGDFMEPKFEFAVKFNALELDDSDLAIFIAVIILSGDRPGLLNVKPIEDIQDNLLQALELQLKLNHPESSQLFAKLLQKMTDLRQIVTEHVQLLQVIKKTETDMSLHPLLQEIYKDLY

[13] = Cmax in Sprague-Dawley rat at 10 mg/kg, po measured upto 24 hrs by LC-MS/MS analysis; type: ADME, organism-based; set-up: dose 10 mg/kg, route oral; details: in vivo
[14] = target: T3, Peroxisome proliferator-activated receptor delta (Homo sapiens, UniProt Q03181); assay: Agonist activity at PPARbeta (unknown origin) incubated for 3 to 16 hrs by pathhunter nuclear hormone receptor assay
T3 sequence (Q03181 whole entry): T1 sequence (whole entry)

Rattus norvegicus [15] = assay: Hepatoprotective activity in Sprague-Dawley rat assessed as reduction in ANIT-stimulated total bilirubin level at 3 mg/kg, ig administered for 8 days by biochemical analysis; type: functional, organism-based
[16] = Oral bioavailability in Sprague-Dawley rat at 10 mg/kg measured upto 24 hrs by LC-MS/MS analysis; details: in vivo
Cytochrome P450 2C19 = Cytochrome P450 2C19 (Homo sapiens, UniProt P33261); assay: Inhibition of CYP2C19 in human liver microsomes using S-mephenytoin as substrate incubated for 10 mins followed by substrate addition further incubated for 10 mins by LC-MS/MS analysis; type: ADME
[17] = target: T4, Peroxisome proliferator-activated receptor gamma (Homo sapiens, UniProt P37231); assay: Agonist activity at PPARgamma (unknown origin) incubated for 3 to 16 hrs by pathhunter nuclear hormone receptor assay
T4 sequence (P37231 whole entry): T2 sequence (whole entry)

Cytochrome P450 2C9 = Cytochrome P450 2C9 (Homo sapiens, UniProt P11712); assay: Inhibition of CYP2C9 in human liver microsomes using diclofenac as substrate incubated for 10 mins followed by substrate addition further incubated for 10 mins by LC-MS/MS analysis; type: ADME
[18] = Protein binding in rat plasma at 2 uM incubated for 4 hrs by LC-MS/MS analysis; type: ADME, cell-free
[19] = Volume of distribution at steady state in C57BL/6J mouse at 1 mg/kg, iv measured upto 24 hrs by LC-MS/MS analysis; type: ADME, organism-based; details: in vivo, read-out: Vdss
[20] = Efflux ratio of apparent permeability across basolateral to apical over apical to basolateral side in human Caco2 cells at 2 uM incubated for 120 mins by LC-MS/MS analysis; type: ADME, cell-based; details: Caco-2

Cytochrome P450 2C19, sequence (P33261 whole entry): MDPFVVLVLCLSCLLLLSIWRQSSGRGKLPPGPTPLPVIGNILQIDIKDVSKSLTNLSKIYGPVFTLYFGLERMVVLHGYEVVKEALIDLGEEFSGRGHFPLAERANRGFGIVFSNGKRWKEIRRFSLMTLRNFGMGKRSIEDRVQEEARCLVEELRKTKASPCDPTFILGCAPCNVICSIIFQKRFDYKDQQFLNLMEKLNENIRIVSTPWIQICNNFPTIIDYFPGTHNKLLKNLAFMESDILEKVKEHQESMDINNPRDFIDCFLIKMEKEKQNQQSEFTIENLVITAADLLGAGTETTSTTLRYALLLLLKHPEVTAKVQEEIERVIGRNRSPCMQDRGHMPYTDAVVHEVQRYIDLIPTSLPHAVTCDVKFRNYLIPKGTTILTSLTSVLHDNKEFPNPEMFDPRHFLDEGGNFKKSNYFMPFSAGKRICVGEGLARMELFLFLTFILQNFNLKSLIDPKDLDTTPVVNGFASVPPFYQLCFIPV
Cytochrome P450 2C9, sequence (P11712 whole entry): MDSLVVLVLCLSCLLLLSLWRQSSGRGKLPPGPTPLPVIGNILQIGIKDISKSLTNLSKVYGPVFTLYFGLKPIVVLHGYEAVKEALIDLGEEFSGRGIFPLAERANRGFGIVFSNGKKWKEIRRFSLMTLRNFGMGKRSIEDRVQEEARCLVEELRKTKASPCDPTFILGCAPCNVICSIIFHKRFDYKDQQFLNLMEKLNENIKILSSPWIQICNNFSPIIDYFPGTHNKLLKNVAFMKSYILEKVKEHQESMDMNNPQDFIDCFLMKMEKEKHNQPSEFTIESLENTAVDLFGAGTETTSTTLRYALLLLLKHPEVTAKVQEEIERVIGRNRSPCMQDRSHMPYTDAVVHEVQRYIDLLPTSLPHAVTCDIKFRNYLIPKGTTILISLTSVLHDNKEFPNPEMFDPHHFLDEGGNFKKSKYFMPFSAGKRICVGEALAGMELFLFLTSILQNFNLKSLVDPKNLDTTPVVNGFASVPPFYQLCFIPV
Cytochrome P450 3A4, sequence (P08684 whole entry): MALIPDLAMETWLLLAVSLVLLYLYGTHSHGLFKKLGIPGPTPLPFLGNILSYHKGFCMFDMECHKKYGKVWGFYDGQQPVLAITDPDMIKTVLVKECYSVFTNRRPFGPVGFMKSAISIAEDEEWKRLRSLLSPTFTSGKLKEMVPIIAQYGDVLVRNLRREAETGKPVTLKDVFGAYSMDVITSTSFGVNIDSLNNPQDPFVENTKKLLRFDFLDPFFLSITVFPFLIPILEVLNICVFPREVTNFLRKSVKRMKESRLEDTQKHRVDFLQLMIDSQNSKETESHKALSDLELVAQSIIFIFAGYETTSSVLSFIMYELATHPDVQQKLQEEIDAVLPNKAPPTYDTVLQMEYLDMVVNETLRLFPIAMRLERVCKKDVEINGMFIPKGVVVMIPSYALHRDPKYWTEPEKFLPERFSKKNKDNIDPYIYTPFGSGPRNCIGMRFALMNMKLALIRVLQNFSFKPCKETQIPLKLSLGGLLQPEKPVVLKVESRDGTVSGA
Voltage-gated inwardly rectifying potassium channel KCNH2, sequence (Q12809 whole entry): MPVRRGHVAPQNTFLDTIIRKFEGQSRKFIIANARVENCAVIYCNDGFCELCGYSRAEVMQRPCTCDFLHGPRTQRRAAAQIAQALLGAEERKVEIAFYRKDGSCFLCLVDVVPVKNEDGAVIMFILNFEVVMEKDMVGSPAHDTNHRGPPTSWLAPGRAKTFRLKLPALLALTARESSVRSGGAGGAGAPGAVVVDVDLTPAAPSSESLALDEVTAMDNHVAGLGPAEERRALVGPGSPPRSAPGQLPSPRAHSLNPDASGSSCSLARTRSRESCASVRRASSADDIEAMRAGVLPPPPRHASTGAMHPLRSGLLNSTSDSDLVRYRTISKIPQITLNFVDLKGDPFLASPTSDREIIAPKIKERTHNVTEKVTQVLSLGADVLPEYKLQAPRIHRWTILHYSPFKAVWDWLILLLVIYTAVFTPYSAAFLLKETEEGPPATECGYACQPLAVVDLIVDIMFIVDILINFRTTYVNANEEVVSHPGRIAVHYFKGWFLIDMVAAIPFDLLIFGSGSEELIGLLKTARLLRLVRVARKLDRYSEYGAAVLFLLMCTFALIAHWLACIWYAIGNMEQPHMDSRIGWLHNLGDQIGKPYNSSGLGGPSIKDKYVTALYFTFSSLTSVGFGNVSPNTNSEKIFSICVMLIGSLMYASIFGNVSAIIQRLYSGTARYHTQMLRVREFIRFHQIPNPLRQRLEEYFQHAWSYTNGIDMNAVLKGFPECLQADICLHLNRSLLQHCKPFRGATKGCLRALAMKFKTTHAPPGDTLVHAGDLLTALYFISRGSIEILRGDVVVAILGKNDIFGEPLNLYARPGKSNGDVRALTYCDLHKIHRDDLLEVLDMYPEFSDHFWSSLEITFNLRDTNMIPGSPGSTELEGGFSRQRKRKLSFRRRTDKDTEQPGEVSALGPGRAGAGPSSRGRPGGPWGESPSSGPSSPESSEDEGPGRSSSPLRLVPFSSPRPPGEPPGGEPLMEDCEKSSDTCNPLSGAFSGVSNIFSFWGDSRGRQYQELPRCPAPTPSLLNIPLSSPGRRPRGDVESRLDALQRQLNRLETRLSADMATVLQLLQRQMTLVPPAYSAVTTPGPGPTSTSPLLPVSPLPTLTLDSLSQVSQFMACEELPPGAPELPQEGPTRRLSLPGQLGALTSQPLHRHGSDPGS

Cc1cc(Cc2cc(-c3ccc(Br)cc3)on2)cc(C)c1OC(C)(C)C(=O)O
pIC50 (Cytochrome P450 3A4): < 4.30
Vd [1]: 0.16 L/kg
AUC(0-t) at 24 h [2]: 561 µM·h
Cmax [3]: 52 µM
Activity (Rattus norvegicus [4]): 30%
pIC50 [5]: < 4.52
Activity [6]: 79%
remaining at 2 h [7]: 88%
AUC(0-t) at 24 h [8]: 10.6 µM·h
fraction unbound at 4 h, 2 µM [9]: < 0.001
Tmax [10]: 19.8 min
Activity (Rattus norvegicus [11]): 28%
Activity [12]: 110%
Cmax [13]: 65.3 µM
pEC50 [14]: 8.30
Activity (Rattus norvegicus [15]): Active
bioavailability [16]: 53.3%
pIC50 (Cytochrome P450 2C19): < 4.30
pEC50 [17]: 5.53
pIC50 (Cytochrome P450 2C9): 4.70
fraction unbound at 4 h, 2 µM [18]: < 0.001
Vd [19]: 0.53 L/kg
efflux ratio at 2 h, 2 µM [20]: 0.4
